In the supplement of paper PMC11061612:

What was measured:
Experiment in all cases: combination Emax (second highest fraction inhibited in the dose matrix, 72 h); higher = more inhibition; extreme values may be limits of the assay
[1] = tested on: JiyoyeP-2003 (Burkitt's Lymphoma)
How it was run: (§1)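 Cell lines grown in DMEM/F12 or RPMI with 10% FBS were plated in 1536-well plates and held 24 hours at 37°C, 5% CO2 before 72 hours of exposure to two-drug dose matrices, with DMSO typically at 0.2%. CellTiter-Glo 2.0 luminescence gave viability, which was converted to inhibition. Vehicle wells were set to 0 and blank wells to 1. Combination Emax is the second-highest inhibition in the matrix, and Bliss excess is the observed combination effect minus the expected EA + EB − EA·EB, where EA and EB are the single-agent effects.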

[2] = tested on: SK-N-FI (Neuroblastoma)
How it was run: as §1

[3] = tested on: DOV13 (Ovarian Carcinoma)
How it was run: as §1

[4] = tested on: LS-513 (Colorectal Carcinoma)
How it was run: as §1

[5] = tested on: MFH-ino (Other Solid Carcinomas)
How it was run: as §1

[6] = tested on: TE-5 (Esophageal Squamous Cell Carcinoma)
How it was run: as §1

[7] = tested on: SN12C (Kidney Carcinoma)
How it was run: as §1

[8] = tested on: NCI-H1793 (Lung Adenocarcinoma)
How it was run: as §1

[9] = tested on: C3A (Hepatocellular Carcinoma)
How it was run: as §1

[10] = tested on: 697 (B-Lymphoblastic Leukemia)
How it was run: as §1

[11] = tested on: MDA-MB-231 (Breast Carcinoma)
How it was run: as §1

[12] = tested on: CAL-78 (Chondrosarcoma)
How it was run: as §1

[13] = tested on: KARPAS-620 (Plasma Cell Myeloma)
How it was run: as §1

[14] = tested on: J82 (Bladder Carcinoma)
How it was run: as §1

[15] = tested on: SUIT-2 (Pancreatic Carcinoma)
How it was run: as §1

[16] = tested on: EM-2 (Chronic Myelogenous Leukemia)
How it was run: as §1

[17] = tested on: LU-99A (Non-Small Cell Lung Carcinoma)
How it was run: as §1

[18] = tested on: DB (B-Cell Non-Hodgkin's Lymphoma)
How it was run: as §1

[19] = tested on: DSH1 (Bladder Carcinoma)
How it was run: as §1

[20] = tested on: NCI-H1299 (Non-Small Cell Lung Carcinoma)
How it was run: as §1

| Structure (SMILES) | combination Emax [1] | combination Emax [2] | combination Emax [3] | combination Emax [4] | combination Emax [5] | combination Emax [6] | combination Emax [7] | combination Emax [8] | combination Emax [9] | combination Emax [10] | combination Emax [11] | combination Emax [12] | combination Emax [13] | combination Emax [14] | combination Emax [15] | combination Emax [16] | combination Emax [17] | combination Emax [18] | combination Emax [19] | combination Emax [20] |
| --- | --- | --- | --- | --- | --- | --- | --- | --- | --- | --- | --- | --- | --- | --- | --- | --- | --- | --- | --- | --- |
| C=CCn1c(=O)c2cnc(Nc3ccc(N4CCN(C)CC4)cc3)nc2n1-c1cccc(C(C)(C)O)n1 [AZD1775] + C1CN(CCC1(C(=O)N[C@@H](CCO)C2=CC=C(C=C2)Cl)N)C3=NC=NC4=C3C=CN4 [Capivasertib] (first compound max 3 µM, partner max 3 µM) | 0.931 | 0.628 | 0.775 | 0.81 | 0.35 | 0.66 | 0.359 | 0.428 | 0.62 | 1 | 0.624 | 0.733 | 0.857 | 0.468 | 0.586 | 0.948 | 0.623 | 0.893 | 0.789 | 0.793 |
| NC1(C(=O)N[C@@H](CCO)c2ccc(Cl)cc2)CCN(c2ncnc3[nH]ccc23)CC1 [Capivasertib] + Cn1cnc2c(F)c(Nc3ccc(Br)cc3Cl)c(C(=O)NOCCO)cc21 [Selumetinib] (first compound max 10 µM, 7x7, partner max 10 µM) | 0.775 | 0.614 | 0.371 | 0.867 | 0.556 | 0.56 | 0.352 | 0.39 | 0.603 | 0.617 | 0.751 | 0.452 | 0.96 | 0.413 | 0.646 | 0.771 | 0.709 | 0.422 | 0.954 | 0.615 |
| CC(=O)c1c(C)c2cnc(Nc3ccc(N4CCNCC4)cn3)nc2n(C2CCCC2)c1=O [Palbociclib] + Cn1cnc2c(F)c(Nc3ccc(Br)cc3Cl)c(C(=O)NOCCO)cc21 [Selumetinib] (first compound max 10 µM, 7x7, partner max 10 µM) | 0.587 | 0.531 | 0.467 | 0.876 | 0.429 | 0.213 | 0.283 | 0.318 | 0.556 | 0.833 | 0.64 | 0.331 | 0.631 | 0.138 | 0.452 | 0.459 | 0.542 | 0.785 | 0.479 | 0.463 |
| CCN(CCO)CCCOc1ccc2c(Nc3cc(CC(=O)Nc4cccc(F)c4)[nH]n3)ncnc2c1 [AZD2811] + C=CCn1c(=O)c2cnc(Nc3ccc(N4CCN(C)CC4)cc3)nc2n1-c1cccc(C(C)(C)O)n1 [AZD1775] (first compound max 1 µM, partner max 1 µM) | 0.926 | 0.666 | 0.823 | 0.703 | 0.183 | 0.313 | 0.175 | 0.359 | 0.421 | 1 | 0.394 | 0.51 | 0.327 | 0.315 | 0.625 | 0.96 | 0.585 | 0.867 | 0.324 | 0.763 |
| CN(C)CCCOc1ccc(-c2ccc3ncc4c(c3c2)n(C2CCOCC2)c(=O)n4C)cn1 [AZD0156] + C=CCn1c(=O)c2cnc(Nc3ccc(N4CCN(C)CC4)cc3)nc2n1-c1cccc(C(C)(C)O)n1 [AZD1775] (first compound max 1 µM, partner max 1 µM) | 0.937 | 0.722 | 0.814 | 0.827 | 0.169 | 0.352 | 0.242 | 0.387 | 0.524 | 1 | 0.374 | 0.428 | 0.511 | 0.333 | 0.619 | 0.902 | 0.677 | 0.891 | 0.421 | 0.742 |
| Cc1c2c(nn1C)CSCc1cc(n(C)n1)CSc1cc(c3ccccc3c1)OCCCc1c(C(=O)O)n(C)c3c-2c(Cl)ccc13 [AZD5991] + CC1(C)CCC(CN2CCN(c3ccc(C(=O)NS(=O)(=O)c4ccc(NCC5CCOCC5)c([N+](=O)[O-])c4)c(Oc4cnc5[nH]ccc5c4)c3)CC2)=C(c2ccc(Cl)cc2)C1 [Venetoclax] (first compound max 1 µM, 7x7, partner max 1 µM) | 0.732 | 0.65 | 0.221 | 0.18 | 0.182 | 0.525 | 0.21 | 0.174 | 0.181 | 1 | 0.216 | 0.796 | 1 | 0.164 | 0.209 | 0.975 | 0.111 | 1 | 0.964 | 0.258 |
| CC1(C)CCC(CN2CCN(c3ccc(C(=O)NS(=O)(=O)c4ccc(NCC5CCOCC5)c([N+](=O)[O-])c4)c(Oc4cnc5[nH]ccc5c4)c3)CC2)=C(c2ccc(Cl)cc2)C1 [Venetoclax] + CN(C)CCCOc1ccc(-c2ccc3ncc4c(c3c2)n(C2CCOCC2)c(=O)n4C)cn1 [AZD0156] (first compound max 1 µM, 7x7, partner max 1 µM) | 0.189 | 0.217 | 0.326 | 0.316 | 0.171 | 0.271 | 0.249 | 0.248 | 0.17 | 0.988 | 0.267 | 0.248 | 0.989 | 0.186 | 0.207 | 0.174 | 0.16 | 0.971 | 0.156 | 0.214 |
| Cc1c2c(nn1C)CSCc1cc(n(C)n1)CSc1cc(c3ccccc3c1)OCCCc1c(C(=O)O)n(C)c3c-2c(Cl)ccc13 [AZD5991] + Cc1cc2ncnn2cc1Nc1ncc2c(n1)n(C1CCOCC1)c(=O)n2C [AZD7648] (first compound max 1 µM, 7x7, partner max 10 µM) | 0.784 | 0.414 | 0.458 | 0.319 | 0.348 | 0.356 | 0.269 | 0.41 | 0.248 | 1 | 0.333 | 0.782 | 1 | 0.187 | 0.179 | 0.446 | 0.414 | 0.995 | 0.67 | 0.34 |
| CCc1c2c(nc3ccc(O)cc13)-c1cc3c(c(=O)n1C2)COC(=O)[C@]3(O)CC [SN-38] + CN(C)CCCOc1ccc(-c2ccc3ncc4c(c3c2)n(C2CCOCC2)c(=O)n4C)cn1 [AZD0156] (first compound max 0.3 µM, 7x7, partner max 1 µM) | 0.975 | 0.669 | 0.936 | 0.526 | 0.812 | 0.796 | 0.738 | 0.505 | 0.557 | 1 | 0.658 | 0.587 | 0.437 | 0.784 | 0.744 | 0.985 | 0.769 | 0.97 | 0.904 | 0.529 |
| CN(C)CCCOc1ccc(-c2ccc3ncc4c(c3c2)n(C2CCOCC2)c(=O)n4C)cn1 [AZD0156] + C[C@@H]1COCCN1C2=NC(=NC(=C2)C3(CC3)[S@](=N)(=O)C)C4=C5C=CNC5=NC=C4 [AZD6738] (first compound max 1 µM, 7x7, partner max 10 µM) | 0.955 | 0.793 | 0.888 | 0.822 | 0.403 | 0.481 | 0.114 | 0.455 | 0.584 | 1 | 0.736 | 0.41 | 0.644 | 0.396 | 0.71 | 0.949 | 0.784 | 0.628 | 0.823 | 0.746 |
| C[C@@H](c1ccc2nccn2c1)n1nnc2ncc(-c3cnn(C)c3)nc21 [Savolitinib] + Cc1c2c(nn1C)CSCc1cc(n(C)n1)CSc1cc(c3ccccc3c1)OCCCc1c(C(=O)O)n(C)c3c-2c(Cl)ccc13 [AZD5991] (first compound max 1 µM, 7x7, partner max 1 µM) | 0.166 | 0.24 | 0.153 | 0.155 | 0.207 | 0.147 | 0.197 | 0.173 | 0.195 | 1 | 0.284 | 0.697 | 0.997 | 0.205 | 0.208 | 0.364 | 0.134 | 0.986 | 0.678 | 0.151 |
